Reference: PubChem BioAssay AID298 (DTP/NCI, 2004)
“And” between values parts separate entries of the source, which are not always exact repeats. Identical values can stand only once. Results filed as inconclusive are left out.

Tested on: MX-1 breast xenograft, intrarenal, nude mice, tumor weight
Assay: NCI In Vivo Anticancer Drug Screen. Data for tumor model Human Mammary Carcinoma MX-1 Xenograft (intrarenal inoculation) in NU/NU BALB/C (nude) mice
Settings: endpoint: mean tumor weight change, higher = larger tumour
Procedure: The antitumor activity of compounds was measured in mice bearing transplantable tumors. Survival or tumor size were measured and the results are expressed as the measurement made in the treated group (T) divided by the measurement made in the vehicle treated control group (C). The tumor model used in this assay is Human Mammary Carcinoma MX-1 Xenograft (intrarenal inoculation) in NU/NU BALB/C (nude) mice

[1] = dose: 50.0 mg/kg/injection, schedule: Q04DX003 (ip), vehicle: saline
[2] = dose: 50.0 mg/kg/injection, schedule: Q04DX003 (ip), vehicle: suspension in saline
[3] = dose: 150.0 mg/kg/injection, schedule: Q04DX003 (sc), vehicle: saline
[4] = dose: 300.0 mg/kg/injection, schedule: Q04DX003 (sc), vehicle: saline
[5] = dose: 150.0 mg/kg/injection, schedule: Q04DX003 (ip), vehicle: water
[6] = dose: 300.0 mg/kg/injection, schedule: Q04DX003 (ip), vehicle: water
[7] = dose: 600.0 mg/kg/injection, schedule: Q04DX003 (ip), vehicle: water

`COc1cccc2c1C(CO)N1C(C#N)C3CC(C(=O)O)C(C1C2)N3C` (configuration not stated) was tested, and the T/C (dose: 3.75 mg/kg/injection, schedule: Q04DX003 (ip), vehicle: saline) was 31 % of control, the T/C (dose: 6.25 mg/kg/injection, schedule: Q01DX010 (ip), vehicle: saline) was -61 % of control and the T/C (dose: 6.25 mg/kg/injection, schedule: Q04DX003 (ip), vehicle: saline) was 9 % of control. For the same compound, the T/C (dose: 6.25 mg/kg/injection, schedule: Q04DX003 (ip), vehicle: suspension in saline) was 10 % of control, the T/C (dose: 7.5 mg/kg/injection, schedule: Q04DX003 (ip), vehicle: saline) was 40 % of control and the T/C (dose: 12.5 mg/kg/injection, schedule: Q01DX010 (ip), vehicle: saline) was -100 % of control. For the same compound, the T/C (dose: 12.5 mg/kg/injection, schedule: Q04DX003 (ip), vehicle: saline) was 17 % of control, the T/C (dose: 12.5 mg/kg/injection, schedule: Q04DX003 (ip), vehicle: suspension in saline) was 6 % of control and the T/C (dose: 15.0 mg/kg/injection, schedule: Q04DX003 (ip), vehicle: saline) was 38 % of control. For the same compound, the T/C (dose: 25.0 mg/kg/injection, schedule: Q01DX010 (ip), vehicle: saline) was -99 % of control, the T/C (dose: 25.0 mg/kg/injection, schedule: Q04DX003 (ip), vehicle: saline) was 14 % of control and the T/C (dose: 25.0 mg/kg/injection, schedule: Q04DX003 (ip), vehicle: suspension in saline) was -48 % of control. The T/C (dose: 30.0 mg/kg/injection, schedule: Q04DX003 (ip), vehicle: saline) was 58 % of control, the T/C [1] was 2 % of control and the T/C [2] was -79 % of control. The T/C (dose: 60.0 mg/kg/injection, schedule: Q04DX003 (ip), vehicle: saline) was 13 % of control.

For `CC1(C)N=C(N)N=C(N)N1c1ccc(F)c(C(F)(F)F)c1`, the T/C (dose: 6.25 mg/kg/injection, schedule: Q01DX010 (sc), vehicle: saline) was 97 % of control, the T/C (dose: 12.5 mg/kg/injection, schedule: Q01DX010 (sc), vehicle: saline) was 85 % of control and the T/C (dose: 25.0 mg/kg/injection, schedule: Q01DX010 (sc), vehicle: saline) was 64 % of control.

With `N/C(=N/N=C/c1cc(Br)cc(Br)c1O)NO` the T/C [2] was 107 % of control and the T/C (dose: 200.0 mg/kg/injection, schedule: Q04DX003 (ip), vehicle: suspension in saline) was 27 % of control.

`C[C@]12CC[C@H](O)CC1=CC[C@@H]1[C@@H]2CC[C@]2(C)C(=O)CC[C@@H]12` was tested, and the T/C (dose: 300.0 mg/kg/injection, schedule: Q04DX003 (sc), vehicle: saline with Tween-80) was 77 % of control, the T/C (dose: 600.0 mg/kg/injection, schedule: Q04DX003 (sc), vehicle: saline with Tween-80) was 76 % of control and the T/C (dose: 1200.0 mg/kg/injection, schedule: Q04DX003 (sc), vehicle: saline with Tween-80) was 63 % of control. The T/C (dose: 2400.0 mg/kg/injection, schedule: Q04DX003 (sc), vehicle: saline with Tween-80) was 68 % of control.

For `CC#CCOCC(O)CCl` (configuration not stated), the T/C (dose: 150.0 mg/kg/injection, schedule: Q04DX003 (ip), vehicle: suspension in saline) was 91 % of control and 97 % of control and the T/C (dose: 300.0 mg/kg/injection, schedule: Q04DX003 (ip), vehicle: suspension in saline) was 97 % of control.

In the case of `COc1cccc2c1C(=O)c1c(O)c3c(c(O)c1C2=O)C[C@](O)(C(=O)CO)CC3OC1CC(N)C(OC2CCCCO2)C(C)O1` (some centres not stated), the T/C (dose: 7.5 mg/kg/injection, schedule: Q04DX003 (ip), vehicle: water) is reported as 21 % of control.

`CCCCN1C(=O)N(c2ccc(OCC)cc2)C2N(CCCC)C1C(C)(C)C2(C)C` (configuration not stated) was tested, and the T/C (dose: 15.0 mg/kg/injection, schedule: Q04DX003 (ip), vehicle: saline with Tween-80) was 90 % of control, the T/C (dose: 30.0 mg/kg/injection, schedule: Q04DX003 (ip), vehicle: saline with Tween-80) was 77 % of control and the T/C (dose: 60.0 mg/kg/injection, schedule: Q04DX003 (ip), vehicle: saline with Tween-80) was 89 % of control. The T/C (dose: 240.0 mg/kg/injection, schedule: Q04DX003 (ip), vehicle: saline with Tween-80) was 98 % of control.

With `O=C1C=C2C(=CCOC2O)O1` (configuration not stated) the T/C (dose: 1.0 mg/kg/injection, schedule: Q04DX003 (sc), vehicle: Klucel (hydroxypropylcellulose) (HPC)) was 87 % of control, the T/C (dose: 2.0 mg/kg/injection, schedule: Q04DX003 (sc), vehicle: Klucel (hydroxypropylcellulose) (HPC)) was 79 % of control and the T/C (dose: 4.0 mg/kg/injection, schedule: Q04DX003 (sc), vehicle: Klucel (hydroxypropylcellulose) (HPC)) was 59 % of control.

For `COC(=O)C1C2CCCN2OC1(C)CO` (configuration not stated), the T/C (dose: 30.0 mg/kg/injection, schedule: Q01DX001 (ip), vehicle: saline) was 224 % of control, the T/C (dose: 240.0 mg/kg/injection, schedule: Q01DX001 (ip), vehicle: saline) was 118 % of control and the T/C (dose: 480.0 mg/kg/injection, schedule: Q01DX001 (ip), vehicle: saline) was 80 % of control.

`CCn1cnc2c(=S)nc[nH]c21` was tested, and the T/C [3] was 91 % of control and the T/C [4] was 49 % of control.

With `NC(=O)c1c[se]c(C2OC(CO)C(O)C2O)n1` (configuration not stated) the T/C (dose: 75.0 mg/kg/injection, schedule: Q04DX003 (ip), vehicle: water) was 88 % of control, the T/C [5] was 61 % of control and the T/C [6] was 50 % of control. For the same compound, the T/C [7] was 43 % of control.

With `ClC1(Cl)Cc2ccccc21` the T/C (dose: 150.0 mg/kg/injection, schedule: Q04DX003 (ip), vehicle: saline with Tween-80) was 109 % of control, the T/C (dose: 300.0 mg/kg/injection, schedule: Q04DX003 (ip), vehicle: saline with Tween-80) was 109 % of control and the T/C (dose: 600.0 mg/kg/injection, schedule: Q04DX003 (ip), vehicle: saline with Tween-80) was 45 % of control.

`COC1C(OC(=O)/C=C/C=C/C=C/C=C/C(=O)O)CCC2(CO2)C1C1(C)OC1CC=C(C)C` (configuration not stated) was tested, and the T/C [3] was 102 % of control, the T/C [4] was 96 % of control and the T/C (dose: 600.0 mg/kg/injection, schedule: Q04DX003 (sc), vehicle: saline) was 62 % of control.

In the case of `C=C1C(O)C2OC3(CCC(/C=C/C(C)C4CC5(C)SC5C5(OC(CC(C)(O)C(=O)O)CCC5O)O4)O3)CCC2OC1C(O)CC(C)C1OC2(CCCCO2)CCC1C` (configuration not stated), the T/C (dose: 5.0 micrograms/kg/injection, schedule: Q04DX003 (ip), vehicle: saline + alcohol) is reported as 92 % of control, the T/C (dose: 10.0 micrograms/kg/injection, schedule: Q04DX003 (ip), vehicle: saline + alcohol) is reported as 84 % of control and the T/C (dose: 40.0 micrograms/kg/injection, schedule: Q04DX003 (ip), vehicle: saline + alcohol) is reported as 56 % of control and 76 % of control.

In the case of `CC(=O)c1c(O)c(C)c(O)c2c1OC1=CC(=O)C(C(C)=O)C(=O)C12C` (configuration not stated), the T/C (dose: 200.0 mg/kg/injection, schedule: Q01DX010 (sc), vehicle: sodium bicarbonate) is reported as 96 % of control and the T/C (dose: 400.0 mg/kg/injection, schedule: Q01DX010 (sc), vehicle: sodium bicarbonate) is reported as 72 % of control.

With `CCOC(=O)Nc1cc(NC(C)/C(=N/O)c2ccccc2)c([N+](=O)[O-])c(N)n1` (configuration not stated) the T/C (dose: 18.75 mg/kg/injection, schedule: Q04DX003 (ip), vehicle: Klucel (hydroxypropylcellulose) (HPC)) was 84 % of control, the T/C (dose: 37.5 mg/kg/injection, schedule: Q04DX003 (ip), vehicle: Klucel (hydroxypropylcellulose) (HPC)) was 60 % of control and the T/C (dose: 75.0 mg/kg/injection, schedule: Q04DX003 (ip), vehicle: Klucel (hydroxypropylcellulose) (HPC)) was 72 % of control.

For `O=[N+]([O-])c1nccn1CC(O)CO` (configuration not stated), the T/C (dose: 300.0 mg/kg/injection, schedule: Q04DX004 (sc), vehicle: saline) was 96 % of control, the T/C (dose: 600.0 mg/kg/injection, schedule: Q04DX004 (sc), vehicle: saline) was 91 % of control and the T/C (dose: 2400.0 mg/kg/injection, schedule: Q04DX004 (sc), vehicle: saline) was 93 % of control.

For `Cc1ccc(C(=O)Nc2ccc(S(=O)(=O)O)c3cc(S(=O)(=O)O)cc(S(=O)(=O)O)c23)cc1NC(=O)c1cccc(NC(=O)Nc2cccc(C(=O)Nc3cc(C(=O)Nc4ccc(S(=O)(=O)O)c5cc(S(=O)(=O)O)cc(S(=O)(=O)O)c45)ccc3C)c2)c1`, the T/C [1] was 77 % of control, the T/C (dose: 100.0 mg/kg/injection, schedule: Q04DX003 (ip), vehicle: saline) was 56 % of control and the T/C (dose: 200.0 mg/kg/injection, schedule: Q04DX003 (ip), vehicle: saline) was 51 % of control.

In the case of `NCc1cc(O)c(O)c(O)c1`, the T/C [5] is reported as 99 % of control, the T/C [6] is reported as 120 % of control and the T/C [7] is reported as 89 % of control. For the same compound, the T/C (dose: 1200.0 mg/kg/injection, schedule: Q04DX003 (ip), vehicle: water) was 91 % of control.

For `CCn1c(-c2ccc(OC(C)=O)cc2)c(C)c2cc(OC(C)=O)ccc21`, the T/C (dose: 150.0 mg/kg/injection, schedule: Q04DX003 (ip), vehicle: Klucel (hydroxypropylcellulose) (HPC)) was 68 % of control, the T/C (dose: 300.0 mg/kg/injection, schedule: Q04DX003 (ip), vehicle: Klucel (hydroxypropylcellulose) (HPC)) was 61 % of control and the T/C (dose: 600.0 mg/kg/injection, schedule: Q04DX003 (ip), vehicle: Klucel (hydroxypropylcellulose) (HPC)) was 63 % of control. For the same compound, the T/C (dose: 1200.0 mg/kg/injection, schedule: Q04DX003 (ip), vehicle: Klucel (hydroxypropylcellulose) (HPC)) was 47 % of control.
